The test system of one test is thymus. The experiment in a line: thymolysis test (oral, adrenalectomized rats, thymus weight). In kind it is in vivo, SPF rats. As to conditions: Rattus norvegicus, 72 h, read-out: Thymolysis ED50. How it is done: The systemic activity of the compounds of this invention was determined as follows with the aid of the well-known thymolysis test:
SPF [specific-pathogen free] rats weighing 70- 110 g were adrenalectomized under ether narcosis. Six animals, respectively, formed each test group and received orally over a period of three days a defined amount of the test compound. On the fourth day, the animals were sacrificed and the weight of their thymus determined. The control animals were treated in the same way, but received a benzyl benzoate-castor -castor oil mixture without the test compound. From the thus-measured thymus weights, the amount of test compound at which a 50% thymolysis was observed was conventionally determined.

Test [1] has as its system skin (stratum corneum stripped, hyperemia). The experiment in a line: vasoconstriction test (topical ointment on stripped skin, skin color value). In kind it is in vivo, human volunteers. As to conditions: concentration 0.00001%, untreated skin = 100, stripped skin = 0. How it is done:
The local anti-inflammatory activity of the corticoids can be determined by means of the conventional vasoconstriction test.
On the backs of persons volunteering for the experiment, the stratum corneum was split up by the application and removal of an adhesive strip having a width of 2 cm. applied twenty times at the same spot, thus producing a pronounced hyperemia. Within the stripped area, 50 mg of an ointment preparation were applied to each one of a number of marked zones of a size of 4 cm^2. The ointment base without active ingredient served as the blank value. The color value of the untreated skin was set at 100 while that of the stripped skin was set at 0. The skin color value under vasoconstriction was correspondingly evaluated between 0 and 100.

The next test concerns paw edema. The experiment in a line: adjuvant-edema test (oral, Mycobacterium butyricum paw edema). It is filed as in vivo, SPF rats. As to conditions: Rattus norvegicus, read-out: Adjuvant Edema Test ED50. The method, then:
Furthermore, the systemic activity was determined with the aid of the adjuvant-edema test as follows:
SPF rats weighing 130-150 g were injected in the right hind paw with 0.1 ml of a 0.5% Mycobacterium butyricum suspension (obtainable from the U.S. company, Difco), in order to induce a center of inflammation. Prior to injection, the paw volume of the rats was measured. Twenty four hours after injection, the paw volume was measured once again to determine the extent of the edema. Thereafter, varying amounts of the test compound, was administered orally to the rats. After another 24 hours, the paw volume was again determined.
The control animals were treated in the same way but without any test compound.
From the thus-obtained paw volumes, the amount of test compound which was required to achieve a 50% reduction the paw edema was conventionally determined. Difluocotolone 21-valerate was also utilized in these tests as the comparison compound.

Setting [2] is: oral, three days, 50% thymolysis, adrenalectomized rats, systemic activity.
The mark [3] stands for this setting: oral, 50% reduction of paw edema, systemic activity.

The values below come from patent US4176126A, “Novel corticoids” (Schering Aktiengesellschaft, priority 1976, dated 1979).

Where two headings read alike, the source gives them in different places.

With `C[C@]12C=CC(=O)C=C1CCC1=C2[C@@H](O)C[C@@]2(C)[C@H]1CC[C@]2(OC(=O)c1ccccc1)C(=O)CCl` [V, 17α-Benzoyloxy-21-chloro-11β-hydroxy-1,4,8(9)-pregnatriene-3,20-dione], in the test with thymus (setting [2]), the median effective dose (ED50) (in general, the midpoint of the dose-response relation) was found to be 1 mg/kg. Besides, in test [1], the “Vasoconstriction after 4 Hours” value is on record as 52% and the “Vasoconstriction after 8 Hours” value was found to be 64%. The ED50 in the test with paw edema (setting [3]) came to 1 mg/kg.
`CCCCC(=O)OCC(=O)[C@H]1[C@H](C)C[C@H]2[C@@H]3C[C@H](F)C4=CC(=O)C=C[C@]4(C)[C@@]3(F)[C@@H](O)C[C@@]21C` [I, 6α, 9α-difluoro-11β-hydroxy-16α-methyl-21-valeryloxy-1,4-pregnadiene-3,20-dione, reference compound]: the ED50 with thymus (po) came out at 0.03 mg/kg; in the test with paw edema (po) it was 0.3 mg/kg. In addition, the “Vasoconstriction after 4 Hours” value in test [1] came out at 33%. Also, the “Vasoconstriction after 8 Hours” value in test [1] stood at 36%.
`CC(C)(C)C(=O)OCC(=O)[C@@]1(OC(=O)c2ccccc2)CC[C@H]2C3=C([C@@H](O)C[C@@]21C)[C@@]1(C)C=CC(=O)C=C1CC3` [II, 17α-Benzoyloxy-11β-hydroxy-21-trimethylacetoxy-1,4,8(9)-pregnatriene-3,20-dione]: the ED50 in the test with thymus (setting [2]) stood at 5.5 mg/kg. Besides, in test [1], the “Vasoconstriction after 4 Hours” value amounted to 30% and the “Vasoconstriction after 8 Hours” value came out at 33%. In addition, in the test with paw edema (setting [3]), the ED50 is 10 mg/kg.
Take `CCC(=O)O[C@]1(C(=O)CCl)CC[C@H]2C3=C([C@@H](O)C[C@@]21C)[C@@]1(C)C=CC(=O)C=C1CC3` [IV, 21-Chloro-11β-hydroxy-17α-propionyloxy-1,4,8(9)-pregnatriene-3,20-dione]: the ED50 in the test on thymus (setting [2]) stood at 2 mg/kg. Besides, in test [1], the “Vasoconstriction after 4 Hours” value worked out at 47% and the “Vasoconstriction after 8 Hours” value was 45%. Besides, the median effective dose (ED50) in the test on paw edema (setting [3]) stood at 2 mg/kg.
Consider `CC(=O)O[C@]1(C(=O)CCl)CC[C@H]2C3=C([C@@H](O)C[C@@]21C)[C@@]1(C)C=CC(=O)C=C1CC3` [III, 17α-Acetoxy-21-chloro-11β-hydroxy-1,4,8(9)-pregnatriene-3,20-dione], for which the ED50 in the test on thymus (setting [2]) came to 3.6 mg/kg. In test [1], the “Vasoconstriction after 4 Hours” value is 42% and the “Vasoconstriction after 8 Hours” value came out at 42%. Besides, in the test on paw edema (setting [3]), the median effective dose (ED50) came out at 3.6 mg/kg.
